Measured values taken from publication PMC5234269 (Chemical communications (Cambridge, England), 2015).
pKi: −log10 of the molar value. “And” between values parts separate entries of the source, which are not always exact repeats. Equal values may be shown once. Read-outs that look alike come from different tables or passages of the source. Each block holds one molecule with its values, some of them ahead of it.

Assays:
D2R = D2R (Homo sapiens, UniProt P14416); format: binding
D3R = D3R (Homo sapiens, UniProt P35462); assay: Radioligand binding to D3R with and without Na+
D3R, sequence (P35462 whole entry): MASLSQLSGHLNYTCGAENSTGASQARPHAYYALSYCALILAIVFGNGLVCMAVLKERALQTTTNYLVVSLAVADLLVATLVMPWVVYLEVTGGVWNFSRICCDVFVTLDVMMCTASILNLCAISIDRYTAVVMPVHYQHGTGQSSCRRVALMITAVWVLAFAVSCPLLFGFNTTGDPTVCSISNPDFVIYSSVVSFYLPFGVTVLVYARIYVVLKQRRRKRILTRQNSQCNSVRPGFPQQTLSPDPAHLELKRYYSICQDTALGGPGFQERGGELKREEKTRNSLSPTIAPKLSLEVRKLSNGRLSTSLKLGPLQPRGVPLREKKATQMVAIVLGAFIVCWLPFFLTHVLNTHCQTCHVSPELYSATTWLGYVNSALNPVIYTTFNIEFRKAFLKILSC

[1] = system: Tyr(7.43) to Cys mutant receptor; conditions: mutant vs wild type; cited from earlier work

D2R, sequence (P14416 whole entry): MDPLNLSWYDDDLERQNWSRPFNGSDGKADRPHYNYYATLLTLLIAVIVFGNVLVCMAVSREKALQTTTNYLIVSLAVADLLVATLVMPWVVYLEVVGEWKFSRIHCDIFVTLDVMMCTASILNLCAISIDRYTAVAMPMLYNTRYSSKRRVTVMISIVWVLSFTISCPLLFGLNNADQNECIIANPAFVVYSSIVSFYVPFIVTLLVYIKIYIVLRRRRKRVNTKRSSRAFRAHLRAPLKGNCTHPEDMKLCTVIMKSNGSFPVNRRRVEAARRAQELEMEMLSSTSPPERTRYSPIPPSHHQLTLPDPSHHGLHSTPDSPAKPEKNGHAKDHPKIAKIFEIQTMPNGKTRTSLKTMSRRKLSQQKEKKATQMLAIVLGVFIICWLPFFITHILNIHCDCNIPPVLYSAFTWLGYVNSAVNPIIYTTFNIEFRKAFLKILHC

increase of affinity for the D2R in the presence of Na+ (D2R): ~ 3 fold
pKi (D2R; Ki): 9.17 and 9.57
effect of Na+ on binding to the D3R (D3R): increased
Structure (SMILES): CCc1cc(Cl)c(OC)c(C(=O)NC[C@@H]2CCCN2CC)c1O [eticlopride]

Structure (SMILES): CN1CN(c2ccccc2)C2(CCN(CCCC(=O)c3ccc(F)cc3)CC2)C1=O [methylspiperone]
decrease of binding by mutation of Tyr(7.43) to Cys [1]: 3 fold

Structure (SMILES): O=C(CCCN1CCC2(CC1)C(=O)NCN2c1ccccc1)c1ccc(F)cc1 [spiperone]
effect of presence or absence of Na+ on affinity for the D2R (D2R): does not affect

Structure (SMILES): CCN1CCCC1CNC(=O)c1cc(S(N)(=O)=O)ccc1OC (stereo not drawn) [sulpiride]
increase of affinity for the D2R in the presence of Na+ (D2R; +Na+ vs -Na+): ~ 23 fold
effect of Na+ on binding to the D3R (D3R; result in words, Fig. S2): increased
decrease of binding by mutation of Tyr(7.43) to Cys [1]: 185 fold

decrease of affinity for the D2R in the presence of Na+ (D2R; +Na+ vs -Na+): ~ 7 fold
Structure (SMILES): CN(C)CCOC1=Cc2ccccc2Sc2ccc(Cl)cc21 [zotepine]
